For series [1] the following is noted: in water under ambient conditions; cited from earlier work.
Series [2] in a line: ozone release, first test: water added to powder in closed reactor, ozone detector. Format: physicochemical. The note with it: same conditions, after adding water. On the procedure: In the first test, about 1.5 g of ozone storage material in powder form have been placed in a glass cup, which in turn has been placed in a glass reactor of volume 1.4 litres. The reactor can be hermetically closed and has been maintained at ambient temperature (˜20° C.).
A portable ozone detector (model X-an-5000 from Dräger, equipped with an XXS O3 cell specifically for ozone detection, detection limit equal to 0.02 ppm and resolution equal to 0.01 ppm, response time <10 s at 20° C.) has been introduced into the reactor and switched on near the powder cup. The detector thus placed makes it possible to continuously emphasise the presence of ozone in the reactor, from an ozone concentration higher than the detection limit of 0.02 ppm.
Secondly, using a graduated glass pipette, a volume of approximately 3 ml of distilled water has been introduced onto the powder through one of the upper openings of the reactor. The reactor has then been immediately hermetically closed again to monitor the course of the vapour phase composition of the reactor with the detector over time. The dissolution of part of the material (about ⅓ of the initial amount) by this addition of water (as the material is relatively soluble in water), caused a rapid increase in the ozone concentration over time as read on the detector (for example 0.1 ppm measured in 40 s; 0.2 ppm in 100 s). […]

As for `O=[O+][O-]` [ozone], the lifetime result in series [1] is given as “about 20 minutes”.
“(2-hydroxypropyl)-β-cyclodextrin [native HP-β-CD]”: the “ozone release on the detector” value in series [2] is “no ozone release was observed”.

(Values after patent US12434967B2, “Method for preparing a solid material for storing ozone, the material and the uses thereof” (priority 2019, dated 2025).)
